Experimental data: patent publication US20260008793A1, “IONIZABLE CATIONIC LIPIDS INCORPORATING SILICON” (ALDEXCHEM KFT., priority 2022, published 2026)

What was measured:
[1] = LNP size, PDI and zeta potential by Dynamic Light Scattering (Method A); type: physicochemical; settings: LNP formulated by Method A; for Zeta potential (mV): 1xPBS pH 7.4; for PDI / Size (nm): DLS; for Size (nm): Luciferase-mRNA loaded
In short: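 LNPs formulated by microfluidic mixing of mRNA in 10 mM citrate pH 4.0 with ethanolic lipid mix (ionizable lipid added to master mix) at 3:1 aqueous:lipid ratio, then dialysed (100 kDa MWCO). Size, PDI and zeta potential measured by dynamic light scattering.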

[2] = physchem; type: physicochemical
Protocol: The synthesized lipids were tested in term of in vitro transfection efficacy and toxicity on HeLa cells. In order to perform the mentioned biological tests, appropriate LNPs had to be formulated from the synthesized lipids. The formulation technique was different in Method A and B. The particle size, PDI and zeta potential of resulting LNPs were determined by means of Dynamic Light Scattering technique (DLS). Prior to biological testing the encapsulation efficiency (EE) of the loaded LNPs was determined by using RiboGreen RNA assay. In case of Method A Luciferase-mRNA while in case of Method B GFP-mRNA was transfected into the cells. In parallel with the transfection experiments, toxicity of the investigated LNPs was determined, in case of Method A resazurin assay while in case of Method B MTT assay was used. In the case of some lipids, the apparent pKa in LNPs was determined by using TNS titration based on the method described: Angew Chem Int Ed Engl. 2012, 51 (34), 8529-8533, doi: 10.1002/anie.201203263).

[3] = system: HeLa cells; assay: Transfection efficiency with Luciferase-mRNA, Nano-Glo assay (Method A); type: cell-based; settings: 100 ng Luciferase (SecNLuc) mRNA, 24 h, luminescence
In short: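 LNPs carrying secreted NanoLuc mRNA (100, 50 or 10 ng/well, in Opti-MEM) added to HeLa cells at ~80% confluence and incubated 24 h. Medium luciferase activity measured by Nano-Glo luminescence about 3 min after reagent addition; toxicity tested in parallel by resazurin.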

Row | SMILES | Zeta potential (mV) [1] | PDI [1] | Size (nm) [1] | pKa [2] | Transfection* (Method A = 100 ng mRNA) [3]
1 | CCCCCCCCCCSC(CCCC)C(=O)OCCCCCCN(CCCCO)CCCCCCOC(CCCCCCC)O[Si](C)(C)CCCCCCCC (stereo not shown) [Example 167, 15-heptyl-7-(4-hydroxybutyl)-17,17-dimethyl-14,16-dioxa-7-aza-17-silapentacosyl 2-(decylthio)hexanoate] | −13.69 mV | 0.04 | 202.9 nm | 6.42 | 3110369
2 | CCCCCCCCCCSC(CCCC)C(=O)OCCCCCCN(CCCCO)CCCCCCO[Si](C)(C)OC(CCCCCCC)OCCCCCCCC (stereo not shown) [Example 176, 17-heptyl-7-(4-hydroxybutyl)-15,15-dimethyl-14,16,18-trioxa-7-aza-15-silahexacosyl 2-(decylthio)hexanoate] | −15.0 mV | 0.18 | 175.00 nm | 6.48 | 12359273
3 | CCCCCCCCOC(CCCCCCC)O[Si](C)(C)OCCCCCCN(CCCCO)CCCCCCOC(=O)C(CCCCCCCC)SCCCCC (stereo not shown) [Example 188, 17-heptyl-7-(4-hydroxybutyl)-15,15-dimethyl-14,16,18-trioxa-7-aza-15-silahexacosyl 2-(pentylthio)decanoate] | −18.1 mV | 0.08 | 160.0 nm | 6.34 | 11210992
4 | CCCCCCCCCCCOC(=O)CCCCCN(CCO)CCCCCCCCCOC(CCCCCCC)O[Si](C)(C)CCCCCC (stereo not shown) [Example 209, undecyl 9-heptyl-20-(2-hydroxyethyl)-7,7-dimethyl-8,10-dioxa-20-aza-7-silahexacosan-26-oate] | −12.11 mV | 0.018 | 161.6 nm | 6.61 | 2049133
5 | CCCCCCCCCCCOC(=O)CCCCCN(CCO)CCCCCCCCCC(OCCCCCCCC)O[Si](C)(C)CCCCCC (stereo not shown) [Example 210, undecyl 6-((10-((hexyldimethylsilyl)oxy)-10-(octyloxy)decyl)(2-hydroxyethyl)amino)hexanoate] | −18.75 mV | 0.097 | 181.2 nm | 6.4 | 1936082
